Test results from the supplement of paper PMC10307832.

Columns and labels:
Assay in all cases: relative viability (nuclei count vs DMSO), 5 days (fraction); higher = more cells survive
LCLC-97TM1 = test system: LCLC-97TM1
Summary of the method: (§1)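 Values are medians from duplicate plates. Each reflects relative viability, defined as the nuclei count of treated wells over that of vehicle wells. Lung cancer cell lines in 1536-well plates were pin-tool dosed one day after seeding with one drug alone or with a fixed anchor-drug dose plus five library-drug doses (not always all listed) in √10 steps, then fixed, stained and imaged at 4× after 5 days.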

NCI-H1993 = test system: NCI-H1993
Summary of the method: as §1

NCI-H1650 = test system: NCI-H1650
Summary of the method: as §1

LXF-289 = test system: LXF-289
Summary of the method: as §1

NCI-H2228 = test system: NCI-H2228
Summary of the method: as §1

LK-2 = test system: LK-2
Summary of the method: as §1

SW 1573 = test system: SW 1573
Summary of the method: as §1

LU99A = test system: LU99A
Summary of the method: as §1

NCI-H2405 = test system: NCI-H2405
Summary of the method: as §1

ChaGo-K-1 = test system: ChaGo-K-1
Summary of the method: as §1

HCC-827 = test system: HCC-827
Summary of the method: as §1

H3255 = test system: H3255
Summary of the method: as §1

NCI-H3122 = test system: NCI-H3122
Summary of the method: as §1

EPLC-272H = test system: EPLC-272H
Summary of the method: as §1

NCI-H1355 = test system: NCI-H1355
Summary of the method: as §1

HOP-62 = test system: HOP-62
Summary of the method: as §1

NCI-H441 = test system: NCI-H441
Summary of the method: as §1

SK-LU-1 = test system: SK-LU-1
Summary of the method: as §1

PC-3 [JPC-3] = test system: PC-3 [JPC-3]
Summary of the method: as §1

EKVX = test system: EKVX
Summary of the method: as §1

UMC-11 = test system: UMC-11
Summary of the method: as §1

NCI-H2170 = test system: NCI-H2170
Summary of the method: as §1

CCNC(=O)c1noc(-c2cc(C(C)C)c(O)cc2O)c1-c1ccc(CN2CCOCC2)cc1 [Luminespib] + CS(=O)(=O)N1CCN(Cc2cc3nc(-c4cccc5[nH]ncc45)nc(N4CCOCC4)c3s2)CC1 [Pictilisib] (partner 1 µM)
relative viability (LCLC-97TM1; first compound 0.002 µM): 0.17 | relative viability (LCLC-97TM1; first compound 0.006325 µM): 0.223 | relative viability (LCLC-97TM1; first compound 0.02 µM): 0.113 | relative viability (LCLC-97TM1; first compound 0.06325 µM): 0.103 | relative viability (LCLC-97TM1; first compound 0.2 µM): 0.0923 | relative viability (NCI-H1993; first compound 0.002 µM): 0.85 | relative viability (NCI-H1993; first compound 0.006325 µM): 0.836 | relative viability (NCI-H1993; first compound 0.02 µM): 0.744 | relative viability (NCI-H1993; first compound 0.06325 µM): 0.787 | relative viability (NCI-H1993; first compound 0.2 µM): 0.643 | relative viability (NCI-H1650; first compound 0.002 µM): 0.593 | relative viability (NCI-H1650; first compound 0.006325 µM): 0.653 | relative viability (NCI-H1650; first compound 0.02 µM): 0.199 | relative viability (NCI-H1650; first compound 0.06325 µM): 0.129 | relative viability (NCI-H1650; first compound 0.2 µM): 0.106 | relative viability (LXF-289; first compound 0.002 µM): 0.75 | relative viability (LXF-289; first compound 0.006325 µM): 0.809 | relative viability (LXF-289; first compound 0.02 µM): 0.714 | relative viability (LXF-289; first compound 0.06325 µM): 0.121 | relative viability (LXF-289; first compound 0.2 µM): 0.087 | relative viability (NCI-H2228; first compound 0.002 µM): 0.496 | relative viability (NCI-H2228; first compound 0.006325 µM): 0.373 | relative viability (NCI-H2228; first compound 0.02 µM): 0.122 | relative viability (NCI-H2228; first compound 0.06325 µM): 0.168 | relative viability (NCI-H2228; first compound 0.2 µM): 0.108 | relative viability (LK-2; first compound 0.002 µM): 0.569 | relative viability (LK-2; first compound 0.006325 µM): 0.548 | relative viability (LK-2; first compound 0.02 µM): 0.373 | relative viability (LK-2; first compound 0.06325 µM): 0.312 | relative viability (LK-2; first compound 0.2 µM): 0.218 | relative viability (SW 1573; first compound 0.002 µM): 0.508 | relative viability (SW 1573; first compound 0.006325 µM): 0.619 | relative viability (SW 1573; first compound 0.02 µM): 0.428 | relative viability (SW 1573; first compound 0.06325 µM): 0.145 | relative viability (SW 1573; first compound 0.2 µM): 0.105 | relative viability (LU99A; first compound 0.002 µM): 0.351 | relative viability (LU99A; first compound 0.006325 µM): 0.36 | relative viability (LU99A; first compound 0.02 µM): 0.226 | relative viability (LU99A; first compound 0.06325 µM): 0.153 | relative viability (LU99A; first compound 0.2 µM): 0.112 | relative viability (NCI-H2405; first compound 0.002 µM): 0.514 | relative viability (NCI-H2405; first compound 0.006325 µM): 0.298 | relative viability (NCI-H2405; first compound 0.02 µM): 0.301 | relative viability (NCI-H2405; first compound 0.06325 µM): 0.147 | relative viability (NCI-H2405; first compound 0.2 µM): 0.142 | relative viability (ChaGo-K-1; first compound 0.002 µM): 0.782 | relative viability (ChaGo-K-1; first compound 0.02 µM): 0.501 | relative viability (ChaGo-K-1; first compound 0.06325 µM): 0.345 | relative viability (ChaGo-K-1; first compound 0.2 µM): 0.362 | relative viability (HCC-827; first compound 0.002 µM): 0.949 | relative viability (HCC-827; first compound 0.006325 µM): 1.02 | relative viability (HCC-827; first compound 0.02 µM): 0.802 | relative viability (HCC-827; first compound 0.06325 µM): 0.555 | relative viability (HCC-827; first compound 0.2 µM): 0.551 | relative viability (H3255; first compound 0.002 µM): 0.497 | relative viability (H3255; first compound 0.006325 µM): 0.474 | relative viability (H3255; first compound 0.02 µM): 0.31 | relative viability (H3255; first compound 0.06325 µM): 0.327 | relative viability (H3255; first compound 0.2 µM): 0.179 | relative viability (NCI-H3122; first compound 0.002 µM): 0.621 | relative viability (NCI-H3122; first compound 0.006325 µM): 0.621 | relative viability (NCI-H3122; first compound 0.02 µM): 0.368 | relative viability (NCI-H3122; first compound 0.06325 µM): 0.166 | relative viability (NCI-H3122; first compound 0.2 µM): 0.176 | relative viability (EPLC-272H; first compound 0.006325 µM): 0.267 | relative viability (EPLC-272H; first compound 0.02 µM): 0.254 | relative viability (EPLC-272H; first compound 0.06325 µM): 0.197 | relative viability (EPLC-272H; first compound 0.2 µM): 0.148 | relative viability (NCI-H1355; first compound 0.002 µM): 0.411 | relative viability (NCI-H1355; first compound 0.006325 µM): 0.458 | relative viability (NCI-H1355; first compound 0.02 µM): 0.255 | relative viability (NCI-H1355; first compound 0.06325 µM): 0.143 | relative viability (NCI-H1355; first compound 0.2 µM): 0.152 | relative viability (HOP-62; first compound 0.002 µM): 0.678 | relative viability (HOP-62; first compound 0.006325 µM): 0.838 | relative viability (HOP-62; first compound 0.02 µM): 0.43 | relative viability (HOP-62; first compound 0.06325 µM): 0.164 | relative viability (HOP-62; first compound 0.2 µM): 0.0784 | relative viability (NCI-H441; first compound 0.002 µM): 0.479 | relative viability (NCI-H441; first compound 0.006325 µM): 0.513 | relative viability (NCI-H441; first compound 0.02 µM): 0.425 | relative viability (NCI-H441; first compound 0.06325 µM): 0.104 | relative viability (NCI-H441; first compound 0.2 µM): 0.0836 | relative viability (SK-LU-1; first compound 0.002 µM): 0.582 | relative viability (SK-LU-1; first compound 0.006325 µM): 0.403 | relative viability (SK-LU-1; first compound 0.02 µM): 0.243 | relative viability (SK-LU-1; first compound 0.06325 µM): 0.161 | relative viability (SK-LU-1; first compound 0.2 µM): 0.121 | relative viability (PC-3 [JPC-3]; first compound 0.002 µM): 0.756 | relative viability (PC-3 [JPC-3]; first compound 0.006325 µM): 0.726 | relative viability (PC-3 [JPC-3]; first compound 0.02 µM): 0.626 | relative viability (PC-3 [JPC-3]; first compound 0.06325 µM): 0.578 | relative viability (PC-3 [JPC-3]; first compound 0.2 µM): 0.286 | relative viability (EKVX; first compound 0.002 µM): 0.392 | relative viability (EKVX; first compound 0.006325 µM): 0.46 | relative viability (EKVX; first compound 0.02 µM): 0.229 | relative viability (EKVX; first compound 0.06325 µM): 0.226 | relative viability (EKVX; first compound 0.2 µM): 0.0934 | relative viability (UMC-11; first compound 0.002 µM): 0.43 | relative viability (UMC-11; first compound 0.006325 µM): 0.764 | relative viability (UMC-11; first compound 0.02 µM): 0.261 | relative viability (UMC-11; first compound 0.06325 µM): 0.603 | relative viability (UMC-11; first compound 0.2 µM): 0.185 | relative viability (NCI-H2170; first compound 0.002 µM): 0.304 | relative viability (NCI-H2170; first compound 0.006325 µM): 0.313 | relative viability (NCI-H2170; first compound 0.02 µM): 0.223 | relative viability (NCI-H2170; first compound 0.06325 µM): 0.165 | relative viability (NCI-H2170; first compound 0.2 µM): 0.155
